Source: US7795379B2, “Isolated nucleic acid molecules encoding cancer associated antigens, the antigens per se, and uses thereof” (Ludwig Institute for Cancer Research, priority 1999, dated 2010)
One block for each molecule: values may come before it.

Assays:
CD4^+ T cells = assay: IFN-gamma ELISPOT with overlapping NY-BR-1 18-mers, CD4+ T cells of NY-BR-1 positive patients; format: cell-based, human; details: IFN-gamma ELISPOT after presensitization with 18-mer, numbering by SEQ ID NO: 32
Description: (§1) CD4^+ and CD8^+ T lymphocytes were separated from PBMC of NY-BR-1 positive patients by magnetic beads (MiniMACS) and seeded into 48-well plates at a concentration of 2.5-5×10^5 cells per well in RPMI medium 1640 supplemented with 10% human serum, L-asparagine (50 mg/l), L-arginine (242 mg/l), and L-glutamine (300 mg/l). PBMC depleted of T cells were used as antigen presenting cells. After irradiation, these cells were incubated with 39 single peptides (10 μg/ml) spanning amino acids 1004-1397 of NY-BR-1(SEQ ID NO: 32) each of 18 amino acids in length and overlapping in 8 positions on each terminus, for 1 hour at room temperature and added to plates at a concentration of 1×10^6 cells per well. IL-2 and IL-4 (2.5 ng/ml and 50 U/ml, respectively) were added to CD4^+ T cell cultures, and IL-2 and IL-7 (2.5 ng/ml and 10 ng/ml, respectively) to CD8^+ T cells. Peptide specific T cell responses against the stimulating epitope were determined by IFN-gamma ELISPOT assays 6 to 12 days after presensitization.
(§2) Flat-bottomed, 96 well nitrocellulose plates were coated with IFN-γ mAb and incubated overnight at 4° C. After washing with PBS, the plates were blocked with 10% human AB serum for 1 hour at 37° C. Presensitized CD4^+ or CD8^+ T cells from (1×10^3 to 5×10^4) and 5×10^4 peptide-pulsed APC (autologous Dendritic Cells or Epstein Barr Virus transfected B cells) were added to each well and incubated for 20 hours in RPMI medium 1640 lacking both IL-2 and human serum. Plates were then washed thoroughly with PBS to remove cells, and biotinylated IFN-γ mAbs were added to each well. After incubation for 2 hours at 37° C., the plates were washed and developed with streptavidin-alkaline phosphase for 1 hour at room temperature. After washing, substrate (5-bromo-4-chloro-3-indolyl phosphate/nitroblue tetrazolium) was added and incubated for 5 minutes.
(§3) Both CD4^+ and CD8^+ T cells were collected from twenty patients, who had been diagnosed with cancer and expressed NY-BR-1, as determined via the methods set forth supra. These CD4^+ and CD8^+ T cells were then analyzed for spontaneous NY-BR-1 specific, CD4^+ and CD8^+ responses.
(§4) Lymphocytes, which had been purified in accordance with the standard methods set forth supra, were presensitized with synthetic 18 mers which overlapped each other, and spanned amino acids […] of SEQ ID NO: 32.
(§5) Following the presensitization, effector cell populations were tested for recognition of ELISPOT assays, with autologous, EBV transfected B cells, and T2 cell lines being used as the antigen presenting cells in the ELISPOT assays. ELISPOT assays were carried out as described supra.

CD8^+ T cells = assay: IFN-gamma ELISPOT with overlapping NY-BR-1 18-mers, CD8+ T cells of NY-BR-1 positive patients; format: cell-based, human; details: for recognized by CD8+ cells: IFN-gamma ELISPOT after presensitization with 18-mer, numbering by SEQ ID NO: 32
Description: as §1, §2, §3, §4, §5

CD8^+ T cell clones = assay: T cell stimulation assay: TNF-α production by peptide/HLA-A2 specific CTL clones with COS-7 transfectants (NY-BR-1 + HLA-A2); format: cell-based, human; details: COS-7 cells transfected with NY-BR-1 and HLA-A2; CD8+ T cell clones of breast cancer patient NW-1100
Description: Sequences encoding NY-BR-1 were excised from plasmid pQE9, via standard restriction enzyme digestion, and were cloned into BamHI-Hind III sites of commercially available plasmid pcDNA31 (−).
The resulting vectors were then transfected into COS-7 cells. To accomplish this, 2×10^4COS-7 cells were admixed with 150 ng of the construct described supra, and 150 ng of plasmid pcDNA-AmpI, which contained cDNA encoding HLA-A2. The standard DE AE-dextran chloroquine method was used. Transfectants were then incubated at 37° C. for 48 hours, and then tested in a T cell stimulation assay, after 24 hours, as described infra.
The transfectants were tested to determine if they could stimulate production of TNF-α by CTLs specific for complexes of HLA-A2 molecules and one of the peptides described supra. The CTLs used were CD8^+ T cell clones. […]
To test if the transfectants stimulated the CD8^+ cells, 5000 of these CD8^+ cells, in 100 μl RPMI supplemented with 10% human serum, and 25 U/ml of recombinant human IL-2 were added to micowells containing the transfectants. After 24 hours, 50 μl samples of supernatant were collected, and TNFα content was determined by testing cytotoxicity against WEHI 164 clone 13 cells, in an MTT colorimetric assay, which is a standard method for showing TNFα production.

CD8^+ cells = assay: ELISPOT assay (interferon gamma) of CTL stimulation by NY-BR-1 peptides pulsed onto T2 cells; format: cell-based, human; details: peptides pulsed onto irradiated T2 cells at 10 ug/ml; CD8+ effector cells presensitized with peptide; HLA-A2
Description: A series of peptides were synthesized, based upon the amino acid sequence of NY-BR-1, as set forth in SEQ ID NO: 23 and the concatenation of SEQ ID NOS: 30 & 23, as described supra and set forth at SEQ ID NO: 32. These were then tested for their ability to bind to HLA-A2 molecules and to stimulate CTL proliferation, using an ELISPOT assay. This assay involved coating 96-well, flat bottom nitrocellulose plates with 5 ug/ml of anti-interferon gamma antibodies in 100 ul of PBS per well, followed by overnight incubation. Purified CD8^+ cells, which had been separated from PBL samples via magnetic beads coated with anti-CD8 antibodies were then added, at 1×10^5 cells/well, in RPMI 1640 medium, that had been supplemented with 10% human serum, L-asparagine (50 mg/l), L-arginine (242 mg/l), L-glutamine (300 mg/l), together with IL-2 (2.5 ng/ml), in a final volume of 100 ul. CD8^+ effector cells were prepared by presensitizing with peptide, and were then added at from 5×103 to 2×10^4 cells/well. Peptides were pulsed onto irradiated T2 cells at a concentration of 10 ug/ml for 1 hour, washed and added to effector cells, at 5×10^4 cells/well. The plates were incubated for 16 hours at 37° C., washed six times with 0.05% Tween 20/PBS, and were then supplemented with biotinylated, anti-interferon gamma specific antibody at 0.5 ug/ml. After incubation for 2 hours at 37° C., plates were washed, and developed with commercially available reagents, for 1 hour, followed by 10 minutes of incubation with dye substrate. Plates were then prepped for counting, positives being indicated by blue spots. The number of blue spots/well was determined as the frequency of […] specific CTLs/well.
Experiments were run, in triplicate, and total number of CTLs was calculated. As controls, one of reagents alone, effector cells alone, or antigen presenting cells alone were used. The difference between the number of positives in stimulated versus non-stimulated cells, was calculated as the effective number of peptide specific CTLs above background.

[1] = biological target: T1, serum samples from breast cancer patients and normal serum samples (Homo sapiens, UniProt Q9BXX3); assay: Western blotting of serum samples against recombinant NY-BR-1 protein fragments; format: binding
T1 construct: made in house
T1 sequence (Q9BXX3 1049-1244): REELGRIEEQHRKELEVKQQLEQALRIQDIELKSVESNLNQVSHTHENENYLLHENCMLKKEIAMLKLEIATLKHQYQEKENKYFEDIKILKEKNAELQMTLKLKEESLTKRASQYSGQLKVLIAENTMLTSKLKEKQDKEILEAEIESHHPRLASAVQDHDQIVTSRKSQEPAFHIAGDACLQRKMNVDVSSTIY
Description: The frequency of antibody response against NY-BR-1 in breast cancer patients was tested. To do this, a recombinant protein consisting of amino acids 993-1188 of SEQ ID NO: 23 was prepared. (This is the protein encoded by clone BR 17-128, referred to supra). A total of 140 serum samples were taken from breast cancer patients, as were 60 normal serum samples. These were analyzed via Western blotting, using standard methods.
An additional set of experiments was then carried out to determine if sera recognized the portion of NY-BR-1 protein with repetitive elements. To do this, a different recombinant protein, consisting of amino acids 405-1000 was made, and tested in Western blot assays.

Molecule: EDIKILKEKNAELQMTLK [p1134-1151]
CD4+ cells reacted / recognized by CD4+ T cells (CD4^+ T cells): reacted

Molecule: ENQKVKWEQELCSVRLTL [p1014-1031]
CD4+ cells reacted / recognized by CD4+ T cells (CD4^+ T cells; listed as 1011-1021): reacted

Molecule: FNYNNHLKNRIYQYEKEK [p1374-1391]
CD4+ cells reacted / recognized by CD4+ T cells (CD4^+ T cells): reacted

Molecule: HENENYLLHENCMLKKEI [p1094-1111]
CD4+ cells reacted / recognized by CD4+ T cells (CD4^+ T cells): reacted

Molecule: HIAGDACLQRKMNVDVSS [p1224-1241]
recognized by CD8+ cells (CD8^+ T cells): recognized

Molecule: HLLKEKNEEIFNYNNHLK [p1364-1381]
CD4+ cells reacted / recognized by CD4+ T cells (CD4^+ T cells): reacted

Molecule: KINLNYAGDALRENTLVS [p1264-1281]
CD4+ cells reacted / recognized by CD4+ T cells (CD4^+ T cells): reacted
recognized by CD8+ cells (CD8^+ T cells): recognized

Molecule: LLSHGAVIEV [NY-BR-1 derived peptide, HLA-A2]
peptide/HLA-A2 complexes recognized by CD8+ T cells (TNFα production); naturally processed epitope (CD8^+ T cell clones): natural epitopes
reactive in ELISPOT (peptide specific CTLs above background) (CD8^+ cells): reactive

Molecule: LRENTLVSEHAQRDQRET [p1274-1291]
recognized by CD8+ cells (CD8^+ T cells): recognized

Molecule: QQQLVHAHKKADNKSKIT [p1334-1351]
recognized by CD8+ cells (CD8^+ T cells): recognized

Molecule: QYQEKENKYFEDIKILKE [p1124-1141]
CD4+ cells reacted / recognized by CD4+ T cells (CD4^+ T cells): reacted

Molecule: SLDQKLFQL [NY-BR-1 derived peptide, HLA-A2]
reactive in ELISPOT (peptide specific CTLs above background) (CD8^+ cells): reactive

Molecule: SLSKILDTV [NY-BR-1 derived peptide, HLA-A2]
peptide/HLA-A2 complexes recognized by CD8+ T cells (TNFα production); naturally processed epitope (CD8^+ T cell clones): natural epitopes
reactive in ELISPOT (peptide specific CTLs above background) (CD8^+ cells): reactive

Molecule: TSRKSQEPAFHIAGDACL [p1214-1231]
recognized by CD8+ cells (CD8^+ T cells): recognized
HLA restriction (CD8^+ T cells; recognized when pulsed onto T2 cells, patient 1): restricted to HLA-A2

Molecule: YSGQLKVLIAENTMLTSK [p1164-1181]
CD4+ cells reacted / recognized by CD4+ T cells (CD4^+ T cells): reacted

B1: amino acids 405-1000: recombinant protein consisting of amino acids 405-1000 of NY-BR-1, the portion with repetitive elements (protein, UniProt Q9BXX3 405-1000, looked up, fragment)
chain: KFTWAAKGRPRKIAWEKKETPVKTGCVARVTSNKTKVLEKGRSKMIACPTKESSTKASANDQRFPSESKQEEDEEYSCDSRSLFESSAKIQVCIPESIYQKVMEINREVEEPPKKPSAFKPAIEMQNSVPNKAFELKNEQTLRADPMFPPESKQKDYEENSWDSESLCETVSQKDVCLPKATHQKEIDKINGKLEESPNKDGLLKATCGMKVSIPTKALELKDMQTFKAEPPGKPSAFEPATEMQKSVPNKALELKNEQTLRADEILPSESKQKDYEENSWDTESLCETVSQKDVCLPKAAHQKEIDKINGKLEGSPVKDGLLKANCGMKVSIPTKALELMDMQTFKAEPPEKPSAFEPAIEMQKSVPNKALELKNEQTLRADEILPSESKQKDYEESSWDSESLCETVSQKDVCLPKATHQKEIDKINGKLEESPDNDGFLKAPCRMKVSIPTKALELMDMQTFKAEPPEKPSAFEPAIEMQKSVPNKALELKNEQTLRADQMFPSESKQKKVEENSWDSESLRETVSQKDVCVPKATHQKEMDKISGKLEDSTSLSKILDTVHSCERARELQKDHCEQRTGKMEQMKKKFCVLK
reactivity of the four antibody positive sera in Western blot ([1]; the four cancer sera positive for amino acids 993-1188): None of the four antibody positive sera reacted

reactivity of normal sera in Western blot ([1]; 60 normal serum samples): negative
cancer sera samples positive in Western blot ([1]; 140 serum samples from breast cancer patients): Four
B2: amino acids 993-1188: recombinant protein consisting of amino acids 993-1188 of SEQ ID NO: 23 (NY-BR-1) (protein)
chain: REELGRIEEQHRKELEVKQQLEQALRIQDIELKSVESNLNQVSHTHENENYLLHENCMLKKEIAMLKLEIATLKHQYQEKENKYFEDIKILKEKNAELQMTLKLKEESLTKRASQYSGQLKVLIAENTMLTSKLKEKQDKEILEAEIESHHPRLASAVQDHDQIVTSRKSQEPAFHIAGDACLQRKMNVDVSSTIY
